Row | melting point [°C] | SMILES
1 | 99 to 100 | COC(=O)c1cccc(OCCCNC(=O)C[C@H]2O[C@H](c3cccc(OC)c3OC)c3cc(Cl)ccc3N(CC(C)(C)CO)C2=O)c1
2 | 251 to 254 | CC1=CC2=C(N3CN(N4CCOCC4)C=C3N=N2)N(c2ccccc2Cl)C1
3 | 200 to 203 | CN1CC(C(=O)c2oc(C3CCS(=O)(=O)CC3)cc2Cc2ccc(F)cc2)=C(O)C1=O
4 | 103 to 107 | Nc1nc2c(s1)CCN(CC=Cc1ccccc1OCc1ccccc1)CC2
5 | 172 to 173 | CCOCc1nc2c(N)nc(C)c(C)c2n1C1(OC)CCCCC1
6 | 51 to 53 | Cc1oncc1C(=O)N1CCCC1
7 | 178 to 180 | CC(=O)Oc1ccc(-n2c(-c3ccccc3)cc3ccccc32)cc1C(=O)O
8 | 114 to 116 | O=C(CCCl)Nc1ccccc1
9 | 210 to 211 | O=C(O)Cc1cc2c(c(C(=O)O)c1)NCCC2
10 | 227 to 229 | NC(=O)NN=C1CCCCC1n1nc(-c2c(-c3ccccc3)nn3ccccc23)ccc1=O (centres undefined)
11 | 60 to 62 | CCOC(=O)n1nc(N(C)C)c2c(Cl)cccc21
12 | 147 to 148 | Oc1cc(Cl)c(-n2cnnn2)cc1Oc1ccc(Cl)cc1Cl
13 | 122 to 123 | CCCc1nn(-c2ccc(C(F)(F)F)cn2)cc1CCCCOc1cc(CCC(=O)O)n(C)n1
14 | 112 to 115 | Cc1ccc(Cc2cnc(NCCNc3ncc(Cl)cc3C)[nH]c2=O)cn1
15 | 158 to 162 | CC(=O)c1ccc2c(c1O)CC(S(C)(=O)=O)CO2 (centres undefined)
16 | 90 to 91 | CC(=O)Oc1ccc(-c2nn(C3CCCC3)c3c(F)cccc23)cc1
17 | 211 to 212 | O=c1c(-c2ccccc2)cc(C2=NCCO2)c2n1CCc1ccsc1-2
18 | 187 to 188 | Cc1c(NC(=O)c2ccc(-c3ccc4c(c3)OCCO4)cc2)ccc2cc(CN3CCCC3)cnc12
19 | 233 | COc1cccc2sc(C(=O)Nc3nnn[nH]3)c(OC(C)C)c12
20 | 77 to 94 | COc1cc(C2CCN(C[C@H](O)C(F)(F)F)CC2)ccc1Nc1ncc2ccc(-c3ccccc3OC)n2n1
21 | 161 to 162 | O=C(O)COc1ccc(SCc2cc(-c3ccccc3Cl)on2)c2c1CCC2
22 | 117 to 118 | COc1ccc2nc(C)cc(-n3cncn3)c2c1
23 | 108 to 109 | CCCc1nsc(N=C(Cl)N(C)C)c1C#N
24 | 70 to 72 | COc1ccc(C(=O)Cc2c(Cl)cncc2Cl)c2c1CC1(CCCC1)O2
25 | 95 to 97 | CCOC(=O)c1cccc2c1N(CCN1CC=C(c3c[nH]c4cc(F)ccc34)CC1)S(=O)(=O)N(C(C)C)C2

Row | melting point [°C] | SMILES
26 | 203 to 205 | c1ccc(-c2ccc(-c3nc4c5ccccc5ccn4n3)cc2)cc1
27 | 193 to 194 | CC(O)c1ccnc(C(=O)c2[nH]c3cc(Cl)ccc3c2CC(=O)O)c1 (centres undefined)
28 | 91 to 92.5 | CCOP(C)(=O)COS(=O)(=O)c1ccccc1C(F)(F)F (centres undefined)
29 | > 300 | O=C1CCC(Nc2ccc3[nH]c(=O)c(C(=O)O)cc3c2)N1 (centres undefined)
30 | 82 to 85 | N#Cc1cccc(C(Oc2ccccc2)Oc2ccccc2)n1
31 | 167 | Cc1c(CO)nc2n1CCc1ccccc1C2=C1CCN(C)CC1
32 | 129 to 131 | CC(C)c1ccc(C2COc3cc(O)c(O)cc3C2)cc1 (centres undefined)
33 | 218 to 220 | CCOC(=O)c1cn(C)c2cnc3cc(F)c(N4CCCC(C)(C)C4)cc3c2c1=O
34 | 145 to 147 | CC(=O)Oc1cc2c(c([N+](=O)[O-])c1OC(C)=O)C(=O)C(C)(C)CC2
35 | 117 to 118 | COc1ccc(C(=O)Cc2ccc(OC)c(F)c2)cc1
36 | 127 | O=C1Cc2cc(F)ccc2N1CCCl
37 | 195 to 196 | Cc1cc(N)ccc1Oc1ccc(Oc2ccc(N)cc2C)cc1
38 | 198 to 199 | CC(=O)NCC1CC(c2ccc(Br)cc2)=NO1 (centres undefined)
39 | 72 | CCc1ccc(N(C(=O)CCl)c2c(F)c(F)cc(F)c2F)cc1
40 | 152 | CC(C)(C)OCC1CN(c2ccc3cc(OCc4ccccc4)ccc3c2)C(=O)O1 (centres undefined)
41 | 92 to 93 | COc1cc(CCCn2ccnc2)ccc1OCc1coc(-c2ccc(C)s2)n1
42 | 84 to 86 | O=C1OCCC1Oc1ccc(C(F)(F)F)cc1 (centres undefined)
43 | 99 to 101 | COc1cccc(CC(=O)N2CCN(c3cccc(C(F)(F)F)c3)CC2)c1
44 | 240 to 242 | NC1([C@@H]2CCN(c3cc4c(cc3F)c(=O)c(C(=O)O)cn4[C@@H]3C[C@@H]3F)C2)CC1
45 | 154 | CC1CCCCc2ncc(C#N)c(=O)n21 (centres undefined)
46 | 123 | CN1CCC(C2c3sccc3CCn3ncnc32)CC1 (centres undefined)
47 | 246 to 248 | Cc1c(-c2ccccc2)n(-c2cccc(S(C)(=O)=O)c2)c(-c2ccccc2)cc1=O
48 | 108 to 109 | COc1ccc2c(c1)C(C)CC1C2CCC2(C)C(=O)CCC12 (centres undefined)
49 | 45 to 60 | CC(C)CSCc1c(-c2ccc(S(C)(=O)=O)cc2)cnn(-c2ccc(F)cc2)c1=O
50 | 147 to 148 | CCOC(=O)C(C)(C)c1ccc(N[C@@H](CCC(N)=O)C(=O)O)cc1

Row | melting point [°C] | SMILES
51 | 216 to 217 | CCc1nc2c(N)nc3ccccc3c2n1OC
52 | 112 to 116 | O=c1c2c(Cl)cc(Cl)cc2n(Cc2ccccc2)c(=O)n1Cc1cccc(F)c1
53 | 159 to 162 | N#Cc1cccc(NC(C(=O)O)c2ccccc2)c1 (centres undefined)
54 | 59 to 61 | CCN(C)C(=O)C(C)n1cc(C)c(-c2ccccc2)n1 (centres undefined)
55 | 197 to 198 | COc1ccc(Cl)cc1C(=O)NCCc1ccc(C=CC(=O)O)cc1
56 | > 265 | C=CC(=O)Nc1ccc2c(Nc3cccc(Br)c3)ncnc2c1
57 | 163 to 164 | OCC1OC(n2cnc3c(NC4CCCC4O)ncnc32)C(O)C1O (centres undefined)
58 | 196 to 198 | O=[N+]([O-])c1ccc2sc(-c3cccnc3)nc2c1
59 | 143 to 149 | Cc1[nH]c(C=O)c(C)c1C(=O)NCCC1CCCN1C (centres undefined)
60 | 78 to 80 | CC(C)(C)OC(=O)NC[C@H]1CC[C@H](CCO)CC1
61 | > 300 | O=c1[nH]c2cc3cc(N4CCCC4)ccc3nc2[nH]1
62 | 84.5 | Cc1c(F)ncn1CC(=O)c1ccccc1
63 | 104 to 106 | C=CCOc1ccc(CC(NC(O)OC(C)(C)C)C(=O)NC(C(=O)NC(C=C)C(=O)OC)C(C)C)cc1 (centres undefined)
64 | 192 to 194 | COC(=O)c1cncc(-c2ccc(OC)c([N+](=O)[O-])c2)c1
65 | 35 to 35.5 | CCCCCC(=O)COS(=O)(=O)c1ccc(OCC)cc1
66 | 212 to 214 | N#Cc1ccc2nc(-c3ccc(Br)o3)cn2c1
67 | 115 to 117 | CCN(CC)CC1(C(F)(F)F)c2cc(Cl)ccc2Nc2ncccc21 (centres undefined)
68 | 134 to 135 | O=C(O)C1=Cc2cc(Cl)cc(COCc3ccccc3)c2OC1C(F)(F)F (centres undefined)
69 | 132 to 135 | Nc1cc(Oc2ccc(NC(=O)Nc3ccc(-c4cccnc4)c(C(F)(F)F)c3)cc2)ncn1
70 | 104 to 108 | CNS(=O)(=O)CC(N)=O
71 | 111 to 112 | O=C(c1ccc2ccccc2c1)N1CC[C@H](NCc2ccnc3ccccc23)C[C@H]1Cc1ccccc1 (relative stereo)
72 | 140 to 141 | CCCCCCCCC(=O)Nc1cc([N+](=O)[O-])ccc1O
73 | 47 to 48 | CC(C)(O)Cc1cccc2ccccc12
74 | 174 to 176 | COC(=O)c1cccc2c(=O)c3cccc(I)c3[nH]c12
75 | 217 to 219 | Cc1ccc(-c2noc3c(Cl)c(OCC(=O)O)ccc23)o1

Row | melting point [°C] | SMILES
76 | 140 to 143 | O=S1N=C(NCCCOc2cccc(CN3CCCCC3)c2)C(NCc2cccnc2)=N1 (centres undefined)
77 | 174 | O=C(O)CSONC(=O)c1c(Cl)ccc2cc(Cl)cnc12
78 | 211 to 212 | O=C1c2ccccc2C(=O)N1CC(=O)N1c2ccccc2N(Cc2ccncc2)C(=O)[C@H]2CCC[C@H]21 (relative stereo)
79 | 218 to 220 | COc1ccc(-c2c(-c3ccc(S(C)(=O)=O)cc3)[nH]c3ccccc23)cc1
80 | 146 to 147 | CCCc1c(OCCCSc2nnc(NC(=O)C(=O)OCC)s2)ccc(C(C)=O)c1O
81 | 52 | C=C(Cn1cncn1)Cn1cncn1
82 | 64 to 80 | CC(=O)SCC(CC(C)C)C(=O)NCCCCCC(N)=O (centres undefined)
83 | 56 | Cc1cc(OC=CCC(F)(F)F)nc(Oc2cc(C(F)(F)F)nn2C)c1
84 | 93 to 94 | CCOC(=O)CNC(=O)c1ccc(N)cc1
85 | 107 to 110 | COc1ccc2c3c(c(=O)oc2c1)CN(Cc1cccnc1)CC3
86 | 103 to 104 | CC(C)(Cn1cncn1)C(=O)C=Cc1ccc2ccccc2c1
87 | 56 to 58 | CC(C(=O)O)c1ccc(C(F)(F)F)cc1 (centres undefined)
88 | 122 to 123 | CC(C)(O)CC1NC(=O)c2ccccc21 (centres undefined)
89 | 131 to 133 | COCc1ccsc1-c1nsc2ccc(-n3c(=O)cc(C(F)(F)F)n(C)c3=O)cc12
90 | 58 to 59 | COC(=O)COc1cccc2c(CCBr)coc12
91 | 181 to 184 | CCOP(=O)(COc1ccc(CO)cc1N)OCC
92 | 180 to 182 | CCCCOc1cc(C(=O)O)cc([N+](=O)[O-])c1C(=O)c1ccc(Cl)cc1
93 | 175 to 176 | COc1cccc(C2CCCN(C(=O)Cc3cc4ccccc4o3)C2)c1 (centres undefined)
94 | 102 | CCc1ccc(-c2ccc(-c3ccc(C)s3)c(F)c2)cc1
95 | 212 to 215 | Cc1cccc(C)c1NC(=O)c1ccc(N)cc1
96 | 113 to 116 | Nc1cc2cccnc2c(Cc2ccccc2)n1
97 | 99 to 101 | CCCCOCCOc1ccc(-c2ccc3c(c2)C=C(C(=O)O)CCN3CCCOC)cc1
98 | 226 to 228 | CC(=O)c1ccc2oc3ccc(C(C)=O)cc3c(=O)c2c1
99 | 81.5 to 82.5 | CCN(CC)CCNC(=S)N(CCS(=O)(=O)c1ccccc1)C(C)C
100 | 161 to 162 | CCN(Cc1sc(-c2ccc(C(F)(F)F)cc2)nc1C)c1cc(C)c(OCC(=O)O)c(C)c1

Row | SMILES | melting point [°C]
101 | CCCCCC(C)C(C)c1cc(O)c2c(c1)OC(C)(C)C1=C2CN(CC(=O)NC)CC1 (centres undefined) | 131 to 134
102 | CN1C(=O)CN=C(c2ccccc2F)c2cc(NC(=O)NCCCO)ccc21 | 118 to 119
103 | CN(C)Cc1nc(CSCCNC(=N)N[N+](=O)[O-])cs1 | 104 to 106
104 | COc1cc(C2C3=C(COC3=O)Nc3ccc4ncsc4c32)cc(OC)c1OC (centres undefined) | 309 to 310

Reference: a melting point compilation (Tetko et al.; mined from patent text by program, amines drawn as free bases though some values may be those of a salt)
